Data: PubChem BioAssay AID248 (DTP/NCI, 2004)
Toxic doses and inconclusive results are not listed. No stated cut-off is given here; in the data, active means T/C of 150% or more; inactive means T/C below 125%.

System: L1210 leukemia ip in BDF1 mice, survival T/C
Test: NCI In Vivo Anticancer Drug Screen. Data for tumor model L1210 Leukemia (intraperitoneal) in B6D2F1 (BDF1) mice
Conditions: endpoint: mean survival time, higher = longer survival
Summary of the method: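 Transplanted-tumor mice were given test agent; controls received vehicle only. Survival readings from the two groups were divided (treated over control).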

[1] = dose: 100.0 mg/kg/injection, schedule: Q04DX003 (ip), vehicle: saline
[2] = dose: 100.0 mg/kg/injection, schedule: Q04DX003 (ip), vehicle: Klucel (hydroxypropylcellulose) (HPC)
[3] = dose: 200.0 mg/kg/injection, schedule: Q04DX003 (ip), vehicle: Klucel (hydroxypropylcellulose) (HPC)
[4] = dose: 400.0 mg/kg/injection, schedule: Q04DX003 (ip), vehicle: Klucel (hydroxypropylcellulose) (HPC)
[5] = dose: 25.0 mg/kg/injection, schedule: Q01DX009 (ip), vehicle: other
[6] = dose: 100.0 mg/kg/injection, schedule: Q04DX002 (ip), vehicle: saline with Tween-80
[7] = dose: 100.0 mg/kg/injection, schedule: Q01DX009 (ip), vehicle: Klucel (hydroxypropylcellulose) (HPC)
[8] = dose: 200.0 mg/kg/injection, schedule: Q01DX009 (ip), vehicle: Klucel (hydroxypropylcellulose) (HPC)
[9] = dose: 400.0 mg/kg/injection, schedule: Q01DX009 (ip), vehicle: Klucel (hydroxypropylcellulose) (HPC)
[10] = dose: 25.0 mg/kg/injection, schedule: Q01DX009 (ip), vehicle: Klucel (hydroxypropylcellulose) (HPC)
[11] = dose: 50.0 mg/kg/injection, schedule: Q01DX009 (ip), vehicle: Klucel (hydroxypropylcellulose) (HPC)
[12] = dose: 100.0 mg/kg/injection, schedule: Q04DX002 (ip), vehicle: Klucel (hydroxypropylcellulose) (HPC)
[13] = dose: 12.5 mg/kg/injection, schedule: Q01DX009 (ip), vehicle: saline with Tween-80
[14] = dose: 100.0 mg/kg/injection, schedule: Q01DX001 (ip), vehicle: saline
[15] = dose: 200.0 mg/kg/injection, schedule: Q01DX001 (ip), vehicle: saline

Measured: T/C

CN1CCC(=C2c3ccccc3C=Cc3ccccc32)CC1
inactive: dose: 6.25 mg/kg/injection, schedule: Q01DX009 (ip), vehicle: saline 95 % of control | dose: 12.5 mg/kg/injection, schedule: Q01DX009 (ip), vehicle: saline 90 % of control | dose: 25.0 mg/kg/injection, schedule: Q01DX009 (ip), vehicle: saline 95 % of control | dose: 25.0 mg/kg/injection, schedule: Q04DX003 (ip), vehicle: saline 96 % of control | dose: 50.0 mg/kg/injection, schedule: Q01DX009 (ip), vehicle: saline 98 % of control | [1] 102 % of control

O=C(O)COc1cc(OCC(=O)O)c([N+](=O)[O-])cc1[N+](=O)[O-]
inactive: [2] 102 % of control | [3] 102 % of control | [4] 91 % of control

Clc1nc(I)c(Cl)c(I)n1
inactive: dose: 6.25 mg/kg/injection, schedule: Q01DX009 (ip), vehicle: other 119 % of control | dose: 12.5 mg/kg/injection, schedule: Q01DX009 (ip), vehicle: other 101 % of control | [5] 94 % of control

CCOC(=O)Nc1cc(NC(c2ccc(Cl)cc2)c2ccc(Cl)cc2)c2[nH]cnc2n1
inactive: [5] 96 % of control | dose: 50.0 mg/kg/injection, schedule: Q01DX009 (ip), vehicle: other 111 % of control

CC(C)C(C=NCC(CCN1CCOCC1)(c1ccc2ccccc2c1)C(C)C)(CCN1CCOCC1)c1ccc2ccccc2c1 (stereo not given)
inactive: dose: 25.0 mg/kg/injection, schedule: Q04DX002 (ip), vehicle: saline with Tween-80 92 % of control | dose: 50.0 mg/kg/injection, schedule: Q04DX002 (ip), vehicle: saline with Tween-80 98 % of control | [6] 92 % of control

CNc1ccc(C(=O)O)cc1I
inactive: [7] 100 % of control | [2] 94 % of control | [8] 94 % of control | [3] 103 % of control | [9] 94 % of control | [4] 96 % of control

C=CCNC(=O)Nc1ncc([N+](=O)[O-])s1
inactive: [10] 90 % of control | dose: 25.0 mg/kg/injection, schedule: Q04DX002 (ip), vehicle: Klucel (hydroxypropylcellulose) (HPC) 101 % of control | [11] 111 % of control | dose: 50.0 mg/kg/injection, schedule: Q04DX002 (ip), vehicle: Klucel (hydroxypropylcellulose) (HPC) 93 % of control | [12] 93 % of control

N#CCCOCC[CH2][Sn]([c]1ccccc1)([c]1ccccc1)[c]1ccccc1
inactive: [6] 94 % of control | dose: 200.0 mg/kg/injection, schedule: Q04DX002 (ip), vehicle: saline with Tween-80 94 % of control | dose: 400.0 mg/kg/injection, schedule: Q04DX002 (ip), vehicle: saline with Tween-80 91 % of control

COc1ccc(Nc2cc(N)nc(N)n2)c(=S)[nH]1
inactive: [1] 97 % of control | dose: 200.0 mg/kg/injection, schedule: Q04DX003 (ip), vehicle: saline 97 % of control | dose: 400.0 mg/kg/injection, schedule: Q04DX003 (ip), vehicle: saline 93 % of control

NC1CCCCC1I (stereo not given)
inactive: dose: 75.0 mg/kg/injection, schedule: Q01DX001 (ip), vehicle: acetone 94 % of control | dose: 150.0 mg/kg/injection, schedule: Q01DX001 (ip), vehicle: acetone 104 % of control

O=C(CC(=O)C(F)(F)C(F)(F)C(F)(F)F)c1csc2ccccc12
inactive: dose: 8.0 mg/kg/injection, schedule: Q01DX015 (ip), vehicle: saline 87 % of control | [13] 109 % of control | dose: 16.0 mg/kg/injection, schedule: Q01DX015 (ip), vehicle: saline 87 % of control | dose: 25.0 mg/kg/injection, schedule: Q01DX009 (ip), vehicle: saline with Tween-80 108 % of control | dose: 32.0 mg/kg/injection, schedule: Q01DX015 (ip), vehicle: saline 87 % of control | dose: 50.0 mg/kg/injection, schedule: Q01DX009 (ip), vehicle: saline with Tween-80 96 % of control | dose: 50.0 mg/kg/injection, schedule: Q04DX003 (ip), vehicle: acetone 101 % of control | [14] 104 % of control | [15] 102 % of control

C#CC(=O)C(CC)CCCC (stereo not given)
inactive: dose: 6.25 mg/kg/injection, schedule: Q01DX009 (ip), vehicle: saline with Tween-80 115 % of control | [13] 117 % of control

CC(=O)NC1C(O)C(NC(C)=O)C(OC(C)=O)C(OC(C)=O)C1OC(C)=O (stereo not given)
inactive: dose: 100.0 mg/kg/injection, schedule: Q04DX003 (ip), vehicle: saline with Tween-80 95 % of control | dose: 200.0 mg/kg/injection, schedule: Q04DX003 (ip), vehicle: saline with Tween-80 101 % of control | dose: 400.0 mg/kg/injection, schedule: Q04DX003 (ip), vehicle: saline with Tween-80 94 % of control

C(/C=N/Nc1cnccn1)=N\Nc1cnccn1
inactive: [7] 89 % of control | [8] 89 % of control | [9] 110 % of control

CC(Br)C(Br)CO (stereo not given)
inactive: dose: 100.0 mg/kg/injection, schedule: Q01DX009 (ip), vehicle: saline 103 % of control | dose: 200.0 mg/kg/injection, schedule: Q01DX009 (ip), vehicle: saline 102 % of control | dose: 400.0 mg/kg/injection, schedule: Q01DX009 (ip), vehicle: saline 100 % of control

OC1(c2ccccc2)c2ccccc2C(O)(c2ccccc2)c2cc3c(cc21)CCCC3 (stereo not given)
inactive: [12] 102 % of control | dose: 200.0 mg/kg/injection, schedule: Q04DX002 (ip), vehicle: Klucel (hydroxypropylcellulose) (HPC) 91 % of control | dose: 400.0 mg/kg/injection, schedule: Q04DX002 (ip), vehicle: Klucel (hydroxypropylcellulose) (HPC) 91 % of control

CCC1(NS(=O)(=O)c2ccc(N)cc2)C(=O)N(C)C(=O)N(C)C1=O
inactive: [14] 94 % of control | [15] 94 % of control | dose: 400.0 mg/kg/injection, schedule: Q01DX001 (ip), vehicle: saline 91 % of control

Cc1cc(N(C)C)nc(SCc2ccc(Cl)cc2Cl)n1
inactive: dose: 200.0 mg/kg/injection, schedule: Q01DX Z (ip), vehicle: methylcellulose (MC) 105 % of control

CN1CCC(O)(c2ccccc2)C(C(=O)c2ccccc2)C1 (stereo not given)
inactive: [14] 101 % of control | [15] 93 % of control

O=NN1CCCNCC1
inactive: dose: 25.0 mg/kg/injection, schedule: Q01DX009 (ip), vehicle: water 104 % of control | dose: 50.0 mg/kg/injection, schedule: Q01DX009 (ip), vehicle: water 111 % of control | dose: 100.0 mg/kg/injection, schedule: Q01DX009 (ip), vehicle: water 106 % of control | dose: 200.0 mg/kg/injection, schedule: Q01DX009 (ip), vehicle: water 101 % of control | dose: 400.0 mg/kg/injection, schedule: Q01DX009 (ip), vehicle: water 112 % of control

Cc1cccc(Cl)c1NC(=O)Nc1cccc(C(=O)O)c1
inactive: [10] 100 % of control | [11] 87 % of control | [7] 90 % of control | [8] 86 % of control | [9] 91 % of control
